Data taken from patent US11053204B2, “Pyrimidinyloxy benzene derivatives as herbicides” (FMC Corporation, priority 2015, dated 2021).

What was measured:
Format in all cases: in vivo
[1] = system: ragweed (common ragweed, Ambrosia elatior); assay: Test C preemergence, plant response rating; settings: Preemergence
How it was run: (§1)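 Visual injury score, 0 = no effect, 100 = complete control, assigned against untreated controls after 13 to 15 d in the greenhouse. Compounds were applied in a surfactant-containing non-phytotoxic solvent mix, preemergence to seeded loam/sand or silt loam soil, or postemergence to 1- to 4-leaf plants (2 to 18 cm).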

[2] = system: velvetleaf (Abutilon theophrasti); assay: Test C preemergence, plant response rating; settings: Preemergence
How it was run: as §1

[3] = system: lambsquarters (Chenopodium album); assay: Test C preemergence, plant response rating; settings: Preemergence
How it was run: as §1

[4] = system: nutsedge, yellow (yellow nutsedge, Cyperus esculentus); assay: Test C preemergence, plant response rating; settings: Preemergence
How it was run: as §1

[5] = system: ryegrass, Italian (Italian ryegrass, Lolium multiflorum); assay: Test C preemergence, plant response rating; settings: Preemergence
How it was run: as §1

[6] = system: blackgrass (Alopecurus myosuroides); assay: Test C preemergence, plant response rating; settings: Preemergence
How it was run: as §1

[7] = system: waterhemp (common waterhemp, Amaranthus rudis); assay: Test C preemergence, plant response rating; settings: Preemergence
How it was run: as §1

[8] = system: oilseed rape (Brassica napus); assay: Test C preemergence, plant response rating; settings: Preemergence
How it was run: as §1

[9] = system: morningglory (Ipomoea coccinea); assay: Test C preemergence, plant response rating; settings: Preemergence
How it was run: as §1

[10] = system: wheat (winter wheat, Triticum aestivum); assay: Test C preemergence, plant response rating; settings: Preemergence
How it was run: as §1

soybean (Glycine max) = assay: Test C preemergence, plant response rating; settings: Preemergence
How it was run: as §1

[11] = system: crabgrass, large (large crabgrass, Digitaria sanguinalis); assay: Test C preemergence, plant response rating; settings: Preemergence
How it was run: as §1

[12] = system: foxtail, giant (giant foxtail, Setaria faberii); assay: Test C preemergence, plant response rating; settings: Preemergence
How it was run: as §1

corn (Zea mays) = assay: Test C preemergence, plant response rating; settings: Preemergence
How it was run: as §1

[13] = system: ragweed (common ragweed, Ambrosia elatior); assay: Test A preemergence, visual injury rating
How it was run: (§2)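 Injury scores run from 0, no effect, to 100, complete control, judged by eye against untreated plants roughly 10 days after treatment. Chemicals carried a surfactant in a non-phytotoxic solvent and went onto loam–sand soil preemergence or onto one- to two-leaf seedlings postemergence.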

[14] = system: giant foxtail (Setaria faberii); assay: Test A preemergence, visual injury rating
How it was run: as §2

[15] = system: pigweed (Amaranthus retroflexus); assay: Test A preemergence, visual injury rating
How it was run: as §2

[16] = system: Italian ryegrass (Lolium multiflorum); assay: Test A preemergence, visual injury rating
How it was run: as §2

[17] = 31 g ai/ha, 0 to 100 scale, 0 no effect, 100 complete control
[18] = 125 g ai/ha, 0 to 100 scale (0 no effect, 100 complete control)

`N#Cc1cccc(Oc2ncc(Cl)cn2)c1COCCC(F)(F)F` [Compound 80] was tested, and the “Plant response rating, Ragweed” value ([1]; 125 g ai/ha, scale of 0 to 100) was 20, the “Plant response rating, Ragweed” value ([1]; 31 g ai/ha, scale 0 to 100) was 0 and the “Plant response rating, Ragweed” value ([1]; 62 g ai/ha, scale 0 to 100) was 5. The “Plant response rating, Velvetleaf” value ([2]; 125 g ai/ha, scale of 0 to 100) was 100, the “Plant response rating, Velvetleaf” value ([2]; 31 g ai/ha, scale 0 to 100) was 55 and the “Plant response rating, Velvetleaf” value ([2]; 62 g ai/ha, scale 0 to 100) was 70. The “Plant response rating, Lambsquarters” value ([3]; 125 g ai/ha, scale of 0 to 100) was 98, the “Plant response rating, Lambsquarters” value ([3]; 31 g ai/ha, scale 0 to 100) was 70 and the “Plant response rating, Lambsquarters” value ([3]; 62 g ai/ha, scale 0 to 100) was 95. For the same compound, the “Plant response rating, Nutsedge, Yellow” value ([4]; 125 g ai/ha, scale of 0 to 100) was 35, the “Plant response rating, Nutsedge, Yellow” value ([4]; 31 g ai/ha, scale 0 to 100) was 0 and the “Plant response rating, Nutsedge, Yellow” value ([4]; 62 g ai/ha, scale 0 to 100) was 0. The “Plant response rating, Ryegrass, Italian” value ([5]; 125 g ai/ha, scale of 0 to 100) was 25, the “Plant response rating, Ryegrass, Italian” value ([5]; 31 g ai/ha, scale 0 to 100) was 0 and the “Plant response rating, Ryegrass, Italian” value ([5]; 62 g ai/ha, scale 0 to 100) was 5. The “Plant response rating, Blackgrass” value ([6]; 62 g ai/ha, scale of 0 to 100) was 70, the “Plant response rating, Blackgrass” value ([6]; 125 g ai/ha, scale of 0 to 100) was 90 and the “Plant response rating, Blackgrass” value ([6]; 16 g ai/ha, scale 0 to 100) was 5. The “Plant response rating, Blackgrass” value ([6]; 31 g ai/ha, scale 0 to 100) was 10, the “Plant response rating, Waterhemp” value ([7]; 125 g ai/ha, scale of 0 to 100) was 100 and the “Plant response rating, Waterhemp” value ([7]; 31 g ai/ha, scale 0 to 100) was 100. The “Plant response rating, Waterhemp” value ([7]; 62 g ai/ha, scale 0 to 100) was 100, the “Plant response rating, Oilseed Rape” value ([8]; 125 g ai/ha, scale of 0 to 100) was 100 and the “Plant response rating, Oilseed Rape” value ([8]; 31 g ai/ha, scale 0 to 100) was 80. The “Plant response rating, Oilseed Rape” value ([8]; 62 g ai/ha, scale 0 to 100) was 70, the “Plant response rating, Morningglory” value ([9]; 125 g ai/ha, scale of 0 to 100) was 75 and the “Plant response rating, Morningglory” value ([9]; 31 g ai/ha, scale 0 to 100) was 20. For the same compound, the “Plant response rating, Morningglory” value ([9]; 62 g ai/ha, scale 0 to 100) was 40, the “Plant response rating, Wheat” value ([10]; 125 g ai/ha, scale of 0 to 100) was 15 and the “Plant response rating, Wheat” value ([10]; 31 g ai/ha, scale 0 to 100) was 0. For the same compound, the “Plant response rating, Wheat” value ([10]; 62 g ai/ha, scale 0 to 100) was 0, the “Plant response rating, Soybean” value (soybean (Glycine max); 125 g ai/ha, scale of 0 to 100) was 85 and the “Plant response rating, Soybean” value (soybean (Glycine max); 31 g ai/ha, scale 0 to 100) was 20. For the same compound, the “Plant response rating, Soybean” value (soybean (Glycine max); 62 g ai/ha, scale 0 to 100) was 40, the “Plant response rating, Crabgrass, Large” value ([11]; 62 g ai/ha, scale of 0 to 100) was 100 and the “Plant response rating, Crabgrass, Large” value ([11]; 125 g ai/ha, scale of 0 to 100) was 98. The “Plant response rating, Crabgrass, Large” value ([11]; 16 g ai/ha, scale 0 to 100) was 55, the “Plant response rating, Crabgrass, Large” value ([11]; 31 g ai/ha, scale 0 to 100) was 80 and the “Plant response rating, Foxtail, Giant” value ([12]; 62 g ai/ha, scale of 0 to 100) was 85. For the same compound, the “Plant response rating, Foxtail, Giant” value ([12]; 125 g ai/ha, scale of 0 to 100) was 100, the “Plant response rating, Foxtail, Giant” value ([12]; 31 g ai/ha, scale 0 to 100) was 40 and the “Plant response rating, Corn” value (corn (Zea mays); 62 g ai/ha, scale of 0 to 100) was 5. The “Plant response rating, Corn” value (corn (Zea mays); 125 g ai/ha, scale of 0 to 100) was 20, the “Plant response rating, Corn” value (corn (Zea mays); 16 g ai/ha, scale 0 to 100) was 0 and the “Plant response rating, Corn” value (corn (Zea mays); 31 g ai/ha, scale 0 to 100) was 5. For the same compound, the “Plant response rating, Ragweed” value [13, 17] was 0, the “Ragweed plant response rating” value [13, 18] was 20 and the “Plant response rating, Foxtail, Giant” value [14, 17] was 90. The “Foxtail, Giant plant response rating” value [14, 18] was 100, the “Plant response rating, Pigweed” value [15, 17] was 100 and the “Pigweed plant response rating” value [15, 18] was 100. The “Plant response rating, Ryegrass, Italian” value [16, 17] was 0 and the “Ryegrass, Italian plant response rating” value [16, 18] was 50.
